Experimental data reported in patent US20200396997A1, “A STABLE AGROCHEMICAL COMPOSITION” (priority 2018, published 2020).

Key:
Assay type in all cases: physicochemical
[1] = Stability of active ingredients in real time study (19 months ambient); conditions: composition of Example-2
From the text: Stability of Active Ingredients Observed in Real Time Study
The composition prepared in Example-2 according to the process disclosed in the present invention is kept for real time study to observe degradation pattern of active ingredients. The composition was kept for 19 months in ambient conditions. Acetamiprid and Acephate found to be very stable with 3.5% and 2.31% degradation respectively. This resulted into an overall stable agrochemical composition.

[2] = Comparative study of compositions with end-capped vs non-end capped EO/PO block polymer (7 and 14 days AHS)
Method: Comparative Study of the Compositions with EO/PO Block Copolymer End-Capped with Methyl Group and Non-End Capped EO/PO Block Polymer
The composition described in Example-1 (having EO/PO block copolymer end-capped with methyl group) prepared according to the process disclosed in the present invention was tested against the composition described in Example-3 (having non-alkyl end-capped EO/PO block copolymer). The objective of study was to determine the effect EO/PO block copolymer end-capped with alkyl group in preventing degradation of active ingredients and to impart overall stability to the composition.

[3] = Stability study of active ingredients in various storage conditions (unpacked / water soluble pouch); conditions: composition of Example-1; for % Degradation: 14 days AHS at 54° C. vs ambient; for 14 D AHS / AMB: content of active; for 14 D AHS: 14 days AHS at 54° C.; for AMB: ambient
Method: Stability Study of Active Ingredients in Various Storage Conditions
The composition described in Example-1 prepared according to the process disclosed in the present invention was tested to determine the stability of active ingredients when subjected to various storage conditions. Degradation of active ingredients was calculated at ambient conditions and in 14 days AHS at 54° C. for the composition kept as unpacked and as packed in water soluble pouch. Acetamiprid and Acephate both found to be stable in unpacked as well as when packed in the water soluble pouch.

[4] = Study of chloronicotinyl compositions with and without EO/PO block copolymer end-capped with methyl group (7 and 14 days AHS)
Method: Study of Chloronicotinyl Compositions Having EO/PO Block Copolymer End-Capped with Methyl Group and without Having EO/PO Block Polymer End-Capped with Methyl Group
The composition described in Example-4 (having EO/PO block copolymer end-capped with methyl group) prepared according to the process disclosed in the present invention was tested against the composition described in Example-7 (having no EO/PO block copolymer). The objective of study was to determine the effect of EO/PO block copolymer end-capped with alkyl group on chloronicotinyl compounds in preventing degradation of the compositions as well as the overall stability to the compositions.

[5] = 19 months in ambient conditions

COP(=O)(NC(C)=O)SC (centres unmarked) [Acephate, N-(Methoxy-methylsulfanylphosphoryl) acetamide]
degradation ([1]; 19 Month Real Time): 3.50 | degradation [1, 5]: 2.31% | stability of active (in words) [1, 5]: very stable | 19 Month Real Time ([1]; content of active, 19 months in ambient conditions): 85.03 | Ambient ([1]; content of active, start): 88.11 | Degradation observed ([2]; 7 days AHS, active in composition comprising EO/PO block copolymer end-capped with methyl group (Example-1)): 0.64% | Degradation observed ([2]; 7 days AHS, active in composition comprising non end-capped EO/PO block copolymer (Example-3)): 1.5% | Degradation observed ([2]; 14 days AHS, active in composition comprising EO/PO block copolymer end-capped with methyl group (Example-1)): 1.02% | Degradation observed ([2]; 14 days AHS, active in composition comprising non end-capped EO/PO block copolymer (Example-3)): 1.92% | % Degradation ([3]; Packed in Water Soluble Pouch): 1.29% | % Degradation ([3]; Without Packing): 0.75% | stability of active (in words) ([3]; unpacked as well as packed in the water soluble pouch): stable | 14 D AHS ([3]; Packed in Water Soluble Pouch): 87.13 | 14 D AHS ([3]; Without Packing): 87.81 | AMB ([3]; Packed in Water Soluble Pouch): 88.59 | AMB ([3]; Without Packing): 88.59

N#C/N=C1\SCCN1Cc1ccc(Cl)nc1 [Thiacloprid]
Degradation observed ([4]; 7 days AHS, active in composition comprising EO/PO block copolymer end-capped with methyl group (Example-4)): 0.58% | Degradation observed ([4]; 7 days AHS, active in composition prepared without using end-capped EO/PO block copolymer (Example-7)): 5.1% | Degradation observed ([4]; 14 days AHS, active in composition comprising EO/PO block copolymer end-capped with methyl group (Example-4)): 0.93% | Degradation observed ([4]; 14 days AHS, active in composition prepared without using end-capped EO/PO block copolymer (Example-7)): 7.91%
